# Test results from patent publication US20060161001A1, “Substituted heterocyclic compounds and methods of use” (Amgen Inc., priority 2004, published 2006).
# Test system: LPS induced TNF release
# Assay: THP1 cell assay (LPS induced TNF release)
# Type: cell-based
# Settings: Homo sapiens, THP-1; THP1 cells, LPS induced TNF-α secretion, 3 h at 37° C.
# Method: Lipopolysaccharide-Activated THP1 Cell TNF Production Assay
# THP1 cells are resuspended in fresh THP1 media (RPMI 1640, 10% heat-inactivated FBS, 1XPGS, 1XNEAA, plus 30 μM OME) at a concentration of 1E6/mL. One hundred microliters of cells per well are plated in a polystyrene 96-well tissue culture. One microgram per mL of bacterial LPS is prepared in THP1 media and is transferred to the wells. Test compounds are dissolved in 100% DMSO and are serially diluted 3-fold in a polypropylene 96-well microtiter plate (drug plate). HI control and LO control wells contain only DMSO. One microliter of test compound from the drug plate followed by 10 μL of LPS are transferred to the cell plate. The treated cells are induced to synthesize and secrete TNF-α at 37° C. for 3 h. Forty microliters of conditioned media are transferred to a 96-well polypropylene plate containing 110 μL of ECL buffer (50 mM Tris-HCl pH 8.0, 100 mM NaCl, 0.05% Tween 20, 0.05% NaN3 and 1% FBS) supplemented with 0.44 nM MAB610 monoclonal Ab (R&D Systems), 0.34 nM ruthenylated AF210NA polyclonal Ab (R&D Systems) and 44 μg/mL sheep anti-mouse M280 Dynabeads (Dynal). After a 2 h incubation at RT with shaking, the reaction is read on the ECL M8 Instrument (IGEN Inc.). A low voltage is applied to the ruthenylated TNF-α immune complexes, which in the presence of TPA (the active component in Origlo), results in a cyclical redox reaction generating light at […]. The amount of secreted TNF-α in the presence of compound compared with that in the presence of DMSO vehicle alone (HI control) is calculated using the formula: % control (POC)=(cpd−average LO)/(average HI−average LO)*100. Data (consisting of POC and inhibitor concentration in μM) is fitted to a 4-parameter equation (y=A+((B−A)/(I+((x/C)ˆD))), where A is the minimum y (POC) value, B is the maximum y (POC), C is the x (cpd concentration) at the point of inflection and D is the slope factor) using a Levenburg-Marquardt non-linear regression algorithm.
row,Compound,IC50 [µM]
1,"C[C@@H](Cc1cccc(C(C)(C)N)c1)Nc1nccc(N2CCCc3cnc(-c4ccccc4)cc32)n1 [Example 39, (S)-N-(1-(3-(2-Aminopropan-2-yl)phenyl)propan-2-yl)-4-(7-phenyl-3,4-dihydro-1,6-naphthyridin-1(2H)-yl) pyrimidin-2-amine]",≤ 20
2,"CC(C)(Cc1ccc(F)cc1)Nc1nccc(N2CCCc3cnc(-c4ccccc4)cc32)n1 [Example 40, N-(1-(4-Fluorophenyl)-2-methylpropan-2-yl)-4-(7-phenyl-3,4-dihydro-1,6-naphthyridin-1(2H)-yl) pyrimidin-2-amine]",≤ 20
3,"CC(C)(CN)Nc1nccc(N2CCCc3cnc(-c4ccccc4)cc32)n1 [Example 41, N-(1-Amino-2-methylpropan-2-yl)-4-(7-phenyl-3,4-dihydro-1,6-naphthyridin-1(2H)-yl)pyrimidin-2-amine]",≤ 20
4,"CC(=O)NCC(C)(C)Nc1nccc(N2CCCc3cnc(-c4ccccc4)cc32)n1 [Example 42, N-(2-Methyl-2-(4-(7-phenyl-3,4-dihydro-1,6-naphthyridin-1(2H)-yl)pyrimidin-2-ylamino)propyl)acetamide]",≤ 20
5,"CC(C)NCC(C)(C)Nc1nccc(N2CCCc3cnc(-c4ccccc4)cc32)n1 [Example 43, N-(1-(Isopropylamino)-2-methylpropan-2-yl)-4-(7-phenyl-3,4-dihydro-1,6-naphthyridin-1(2H)-yl) pyrimidin-2-amine]",≤ 20
6,"c1ccc(CCNc2nccc(N3CCCc4ccc(-c5ccccc5)nc43)n2)cc1 [Example 47, N-Phenethyl-4-(7-phenyl-3,4-dihydro-1,8-naphthyridin-1(2H)-yl)pyrimidin-2-amine]",≤ 20
7,"CC(Cc1cccc(CO)c1)Nc1nccc(N2CCCc3ccc(-c4ccccc4)nc32)n1 (stereo not drawn) [Example 48, (3-(2-(4-(7-Phenyl-3,4-dihydro-1,8-naphthyridin-1(2H)-yl)pyrimidin-2-yl-amino)propyl)phenyl)methanol]",≤ 20
8,"CC(Cc1cccc(CN)c1)Nc1nccc(N2CCCc3ccc(-c4ccccc4)nc32)n1 (stereo not drawn) [Example 49, N-(1-(3-(Aminomethyl)phenyl)propan-2-yl)-4-(7-phenyl-3,4-dihydro-1,8-naphthyridin-1(2H)-yl)pyrimidin-2-amine]",≤ 20
9,"c1ccc(-c2ccc3c(n2)N(c2ccnc(NCCc4cccnc4)n2)CCC3)cc1 [Example 50, 4-(7-Phenyl-3,4-dihydro-1,8-naphthyridin-1(2H)-yl)-N-(2-(pyridin-3-yl)ethyl)-pyrimidin-2-amine]",≤ 20
10,"CN(C)CC(C)(C)CNc1nccc(N2CCCc3ccc(-c4ccccc4)nc32)n1 [Example 51, N-(3-(Dimethylamino)-2,2-dimethylpropyl)-4-(7-phenyl-3,4-dihydro-1,8-naphthyridin-1(2H)-yl)pyrimidin-2-amine]",≤ 20
11,"CC(C)(C)CNc1nccc(N2CCCc3ccc(-c4ccccc4)nc32)n1 [Example 52, N-Neopentyl-4-(7-phenyl-3,4-dihydro-1,8-naphthyridin-1(2H)-yl)pyrimidin-2-amine]",≤ 20
12,"CC(C)(N)CNc1nccc(N2CCCc3ccc(-c4ccccc4)nc32)n1 [Example 53, N-(2-Amino-2-methylpropyl)-4-(7-phenyl-3,4-dihydro-1,8-naphthyridin-1(2H)-yl)-pyrimidin-2-amine]",≤ 20
13,"CC(C)(C)OC(=O)N1CCC(Nc2nccc(N3CCCc4ccc(-c5ccccc5)nc43)n2)CC1 [Example 54, tert-Butyl 4-(4-(7-phenyl-3,4-dihydro-1,8-naphthyridin-1(2H)-yl)pyrimidin-2-yl-amino)piperidine-1-carboxylate]",≤ 20
14,"FC(F)(F)c1cc(N2CCCc3ccc(-c4ccccc4)nc32)nc(NCCc2ccccc2)n1 [Example 56, N-Phenethyl-4-(7-phenyl-3,4-dihydro-1,8-naphthyridin-1(2H)-yl)-6-(trifluoromethyl)pyrimidin-2-amine]",≤ 20
15,"CC(Cc1cccc(CO)c1)Nc1nc(N2CCCc3ccc(-c4ccccc4)nc32)cc(C(F)(F)F)n1 (stereo not drawn) [Example 57, (3-(2-(4-(7-Phenyl-3,4-dihydro-1,8-naphthyridin-1(2H)-yl)-6-(trifluoromethyl)-pyrimidin-2-ylamino)propyl)phenyl)methanol]",≤ 20
16,"CC(Cc1cccc(CN)c1)Nc1nc(N2CCCc3ccc(-c4ccccc4)nc32)cc(C(F)(F)F)n1 (stereo not drawn) [Example 58, N-(1-(3-(Aminomethyl)phenyl)propan-2-yl)-4-(7-phenyl-3,4-dihydro-1,8-naphthyridin-1(2H)-yl)-6-(trifluoromethyl)pyrimidin-2-amine]",≤ 20
17,"CCOC(=O)c1cc2c(nc1-c1ccccc1)N(c1ccnc(NC3CCN(C(=O)OC(C)(C)C)CC3)n1)CCC2 [Example 74, Ethyl 8-(2-(1-(tert-butoxycarbonyl)piperidin-4-ylamino)pyrimidin-4-yl)-2-phenyl-5,6,7,8-tetrahydro-1,8-naphthyridine-3-carboxylate]",≤ 20

# The next lines start with the values.
row,IC50 [µM],Compound
1,≤ 20,"Cc1cc(N2CCCc3ccc(-c4ccccc4)nc32)nc(F)n1 [Example 59, 1-(2-Fluoro-6-methylpyrimidin-4-yl)-7-phenyl-1,2,3,4-tetrahydro-1,8-naphthyridine]"
2,≤ 20,"Cc1cc(N2CCCc3ccc(-c4ccccc4)nc32)nc(NC2CCN(C(=O)OC(C)(C)C)CC2)n1 [Example 60, tert-Butyl 4-(4-methyl-6-(7-phenyl-3,4-dihydro-1,8-naphthyridin-1(2H)-yl)-pyrimidin-2-ylamino)piperidine-1-carboxylate]"
3,≤ 20,"Cc1cc(N2CCCc3ccc(-c4ccccc4)nc32)nc(N[C@@H](C)Cc2cccc([C@@H](C)NC(=O)OC(C)(C)C)c2)n1 [Example 61, tert-Butyl (R)-1-(3-((S)-2-(4-methyl-6-(7-phenyl-3,4-dihydro-1,8-naphthyridin-1 (2H)-yl)pyrimidin-2-ylamino)propyl)phenyl)ethylcarbamate]"
4,≤ 20,"Cc1cc(N2CCCc3ccc(-c4ccccc4)nc32)nc(N[C@@H](C)Cc2cccc([C@@H](C)N)c2)n1 [Example 62, N-((S)-1-(3-((R)-1-Aminoethyl)phenyl)propan-2-yl)-4-methyl-6-(7-phenyl-3,4-dihydro-1,8-naphthyridin-1(2H)-yl)pyrimidin-2-amine]"
5,≤ 20,"CCOC(=O)c1cc2c(nc1-c1ccccc1)N(c1ccnc(NCCc3ccccc3)n1)CCC2 [Example 66, Ethyl 8-(2-(Phenethylamino)pyrimidin-4-yl)-2-phenyl-5,6,7,8-tetrahydro-1,8-naphthyridine-3-carboxylate]"
6,≤ 20,"OCc1cc2c(nc1-c1ccccc1)N(c1ccnc(NCCc3ccccc3)n1)CCC2 [Example 67, (8-(2-(Phenethylamino)pyrimidin-4-yl)-2-phenyl-5,6,7,8-tetrahydro-1,8-naphthyridin-3-yl)methanol]"
7,≤ 20,"COCc1cc2c(nc1-c1ccccc1)N(c1ccnc(NCCc3ccccc3)n1)CCC2 [Example 68, 4-(6-(Methoxymethyl)-7-phenyl-3,4-dihydro-1,8-naphthyridin-1(2H)-yl)-N-phenethylpyrimidin-2-amine]"
8,≤ 20,"O=C(O)c1cc2c(nc1-c1ccccc1)N(c1ccnc(NCCc3ccccc3)n1)CCC2 [Example 69, 8-(2-(Phenethylamino)pyrimidin-4-yl)-2-phenyl-5,6,7,8-tetrahydro-1,8-naphthyridine-3-carboxylic acid]"
9,≤ 20,"CNCc1cc2c(nc1-c1ccccc1)N(c1ccnc(NCCc3ccccc3)n1)CCC2 [Example 70, 4-(6-((Methylamino)methyl)-7-phenyl-3,4-dihydro-1,8-naphthyridin-1(2H)-yl)-N-phenethylpyrimidin-2-amine]"
10,≤ 20,"CN(C)Cc1cc2c(nc1-c1ccccc1)N(c1ccnc(NCCc3ccccc3)n1)CCC2 [Example 71, 4-(6-((Dimethylamino)methyl)-7-phenyl-3,4-dihydro-1,8-naphthyridin-1(2H)-yl)-N-phenethylpyrimidin-2-amine]"
11,≤ 20,"CC(=O)c1cc2c(nc1-c1ccccc1)N(c1ccnc(NCCc3ccccc3)n1)CCC2 [Example 72, 1-(8-(2-(Phenethylamino)pyrimidin-4-yl)-2-phenyl-5,6,7,8-tetrahydro-1,8-naphthyridin-3-yl)ethanone]"
12,≤ 20,"CC(O)c1cc2c(nc1-c1ccccc1)N(c1ccnc(NCCc3ccccc3)n1)CCC2 (stereo not drawn) [Example 73, 1-(8-(2-(Phenethylamino)pyrimidin-4-yl)-2-phenyl-5,6,7,8-tetrahydro-1,8-naphthyridin-3-yl)ethanol]"
13,≤ 20,"CCOC(=O)c1cc2c(nc1-c1ccccc1)N(c1ccnc(N[C@H]3CC[C@H](N)CC3)n1)CCC2 [Example 75, Ethyl 8-(2-((1R,4R)-4-aminocyclohexylamino)pyrimidin-4-yl)-2-phenyl-5,6,7,8-tetrahydro-1,8-naphthyridine-3-carboxylate]"
